# Measured values as given in patent US20070197577A1 (priority 2003, published 2007).
# Experiments:
# [1] = tested on: anthrax; conditions: monkey, in vivo; cited from earlier work
Compound,melting point,monkeys that survived a lethal aerosol challenge [1]
CC(C)CC(NCC(=O)NO)C(=O)NC(Cc1ccc2ccccc2c1)C(=O)NC(C)C(N)=O (stereo not shown),205 to 212 °C,–
O=C(O)c1cccc(N(CCc2ccccc2)c2nnc(-c3cccc(Oc4cccc(C(F)(F)F)c4)c3)s2)c1,92 to 93 °C,–
penicillin,–,7 of 10
O=C(O)c1cn(C2CC2)c2cc(N3CCNCC3)c(F)cc2c1=O [ciprofloxacin],–,8 of 9
